Measurements as given in US20110009446A1, “OLIGOMER-GUANIDINE CLASS CONJUGATES” (Nektar Therapeutics, priority 2008, published 2011).
Structures can show the parent of a compound that is named as a salt.

Key:
[1] = target: T1, noradrenalin transporters (Rattus norvegicus, UniProt Q9WTR4); assay: Radioligand binding assay ([3H]-nisoxetine competition) in rat forebrain membranes; settings: 1.0 nM [3H]-nisoxetine, 0-4° C., 4 hours, Cheng Prusoff correction
T1 construct: membranes prepared from rat forebrain which express noradrenalin transporters; from tissue; host or cells: rat forebrain membranes
Procedure: Competition binding experiments are conducted by incubating membranes with 1.0 nM of radioligand, [^3H]-nisoxetine, in the presence of variable concentrations (0.1 nM to 3 μM and 1 nM to 30 μM for parent and PEG conjugates, respectively) of test compounds. The reaction is carried out in 50 mM Tris-HCl (pH 7.4), containing 300 mM NaCl and 5 mM KCl at 0-4° C. for 4 hours. Following incubations, the membranes are washed, and the bound radioactivity is measured. Non-specific binding is measured in the presence of excess desipramine (1.0 μM) as the cold ligand; this value is subtracted from the total binding to yield the specific binding at each test compound concentration.
Ki is obtained using the Cheng Prusoff correction using experimental Kd values that are previously determined under these assay conditions.

[2] = test system: visceral pain in mice (CD-1 male mice); assay: Analgesic assay (acetic acid-induced writhing); format: in vivo
Procedure: An analgesic assay was used to determine whether a given compound can reduce and/or prevent visceral pain in mice. The assay utilized CD-1 male mice (5-8 mice per group), each mouse being approximately 0.015-0.030 kg on the study day. Mice were treated according to standard protocols. Mice were given a single “pretreatment” dose of a compound lacking covalent attachment of a water-soluble, non-peptidic oligomer, a corresponding version comprising the compound covalently attached to a water-soluble, non-peptidic oligomer, or control solution (IV, SC, IP or orally) thirty minutes prior to the administration of the acetic acid solution. The animal was given an IP injection of an irritant (acetic acid) that induces “writhing” which may include: contractions of the abdomen, twisting and turning of the trunk, arching of the back and the extension of the hindlimbs. Mice were given a single IP injection (0.1 mL/10 g bodyweight) of a 0.5% acetic acid solution. After the injection the animals were returned to their observation enclosure and their behavior was observed. Contractions were counted between 0 and 20 minutes after the injection. The animals were used once. Each tested article was dosed at 1, 3 and 10 mg/kg (n=5 animals/dose).

[3] = 10 mg/kg, 5 animals, acetic acid writhing

T1 sequence (Q9WTR4 1-597): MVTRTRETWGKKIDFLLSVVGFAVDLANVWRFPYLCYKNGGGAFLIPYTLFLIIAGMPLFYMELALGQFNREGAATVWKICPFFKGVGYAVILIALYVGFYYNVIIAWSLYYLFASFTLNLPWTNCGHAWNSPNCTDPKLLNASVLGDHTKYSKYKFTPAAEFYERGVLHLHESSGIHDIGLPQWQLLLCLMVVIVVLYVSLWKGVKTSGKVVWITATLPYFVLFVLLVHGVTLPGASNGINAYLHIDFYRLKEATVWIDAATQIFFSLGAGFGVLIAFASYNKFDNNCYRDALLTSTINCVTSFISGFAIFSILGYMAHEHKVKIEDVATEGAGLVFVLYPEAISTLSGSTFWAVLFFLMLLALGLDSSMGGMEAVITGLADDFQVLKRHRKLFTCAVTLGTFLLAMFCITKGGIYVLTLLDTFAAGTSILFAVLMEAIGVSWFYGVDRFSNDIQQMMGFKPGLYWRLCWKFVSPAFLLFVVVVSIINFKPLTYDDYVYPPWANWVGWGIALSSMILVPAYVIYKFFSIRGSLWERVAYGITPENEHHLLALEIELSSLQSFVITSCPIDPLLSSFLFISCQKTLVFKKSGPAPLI

Ki [1] [nM] | Structure (SMILES) | Mean (contractions/writhing counted) ([2]; 10 mg/kg single pretreatment dose 30 min before IP 0.5% acetic acid, contractions counted 0-20 min, CD-1 male mice) | No. of Responders [2, 3] | Responding Fraction [2, 3] | % Reduction in writhing ([2]; 10 mg/kg, CD-1 male mice, acetic acid writhing) [%]
594 | N=C(N)N1CCc2ccccc2C1 [Debrisoquine sulfate, debrisoquine sulfate] | – | – | – | –
– | N=C(N)N1CCc2ccccc2C1 [Debrisoquine] | 49.6 | 0 | 0.00 | 10.6
